According to PMC8713164, “Development of a 1,2,4-Triazole-Based Lead Tankyrase Inhibitor: Part II” (Journal of Medicinal Chemistry, 2021):
Converted amounts (≈) assume the structure as drawn. Read-outs that look alike come from different tables or passages of the source.

How the values were obtained:
WNT/β-catenin signaling [1] = conditions: cited from earlier work
COLO 320DM cells = conditions: cited from earlier work
[2] = parameters: method as in PMID 32511917; conditions: PBS pH = 7; cited from earlier work
Caco-2 = conditions: cited from earlier work
[3] = parameters: method as in PMID 32511917; conditions: cited from earlier work
[4] = parameters: method as in PMID 32511917; conditions: cited from earlier work; remark: listed apart in the source
[5] = parameters: method as in PMID 32511917; conditions: cited from earlier work; remark: listed apart in the source
[6] = tested on: Cerep Safety panel 44 targets; parameters: method as in PMID 32511917; conditions: 10 μM; cited from earlier work
A2A = conditions: 10 μM; cited from earlier work
[7] = mouse PO 5 mg/kg; cited from earlier work
TNKS2 = target: T1, TNKS2 (Homo sapiens, UniProt Q9H2K2); experiment: TNKS2 biochemical assay (unreacted NAD+ fluorescence); conditions: TNKS2 5 nM, 500 nM NAD+, 20 h; quadruplicates; 95% confidence intervals in parentheses; 24: averages of multiple independent measurements; read-out: IC50 TNKS2
T1 construct: TNKS2 (residues 873–1162); made in house
T1 sequence (Q9H2K2 873-1162): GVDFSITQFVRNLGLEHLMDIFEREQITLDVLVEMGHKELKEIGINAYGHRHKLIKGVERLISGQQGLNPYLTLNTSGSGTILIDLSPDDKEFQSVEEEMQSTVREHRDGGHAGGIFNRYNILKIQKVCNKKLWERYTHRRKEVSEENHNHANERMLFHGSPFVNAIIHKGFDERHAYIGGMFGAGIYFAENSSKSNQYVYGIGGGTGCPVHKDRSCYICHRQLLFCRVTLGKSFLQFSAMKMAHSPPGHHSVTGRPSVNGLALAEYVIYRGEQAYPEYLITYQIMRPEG
Method: New compounds were prepared in half-log dilution series, and the reactions were carried out in quadruplicates with protein and compound controls to exclude the effect of compound autofluorescence. All reactions were performed at ambient temperature. TNKS1 (20 nM) or TNKS2 (5 nM) was incubated for 20 h in assay buffer (50 mM Bis-Tris propane (BTP), pH 7.0, 0.5 mM Tris(2-carboxyethyl)phosphine (TCEP), 0.01% Triton X-100) with compound and 10 μM or 500 nM NAD^+, respectively.

WNT/β-catenin signaling [8] = experiment: cellular (HEK293) WNT/β-catenin signaling luciferase reporter assay; type: cell-based, human
[9] = mouse peroral pharmacokinetic analysis; type: in vivo; conditions: mouse PO 5 mg/kg; for AUC(0-inf) at 24 h / AUC(0-t) at 24 h / Cmax at 24 h / Tmax at 24 h / half-life at 24 h / MRT inf at 24 h: IRC, in vivo; for MRT inf at 24 h: read-out: MRT 0 → ∞
Method: The pharmacokinetic analyses in mice were performed according to the standard protocols of Medicilon as previously described[21] following approval by local animal experiment authorities (Shanghai, China) and in compliance with FELASA guidelines and recommendations. Three IRC mice were used per treatment group: 5 mg/kg 24 in 5% DMSO, 50% PEG400 (both Sigma-Aldrich), and 45% saline as vehicle.

kinetic solubility = type: physicochemical; conditions: PBS pH = 7
Method: Kinetic solubility, microsomal stability, and plasma stability were determined following our internal protocol (Symeres). The Caco-2 and PPB determinations were performed by Cyprotex.

[10] = Homo sapiens, HEK293, read-out: IC50 HEK293, HEK293 WNT/β-catenin signaling reporter assay, triplicates, 24: averages of multiple independent measurements
[11] = read-out: IC50 HEK293, HEK293 WNT/β-catenin signaling reporter assay, triplicates, 24: averages of multiple independent measurements
[12] = Homo sapiens, HEK293, read-out: IC50 HEK293

For `CCOc1ccc(-c2nnc([C@H]3C[C@H](NC(=O)c4ccccn4)C3)n2-c2ccccc2F)nc1` [Compound 1], the IC50 (WNT/β-catenin signaling [1]; HEK293 WNT/β-catenin signaling reporter assay) is given as 19 nM, the “HEK293 reporter assay pIC50 ± SEM” value (WNT/β-catenin signaling [1]) is given as 19 (7.75 ± 0.067) and the “COLO 320DM cells GI25” value (COLO 320DM cells) is given as 94 nM. For the same compound, the GI50 (COLO 320DM cells) was 650 nM, the kinetic solubility [2] was >80 µM and the “Caco-2 A–B: Papp” value (Caco-2) was 39.5 10^–6 cm/s. The “microsomal stability human CLint” value [3] was < 5 μL/min/mg protein, the “microsomal stability mouse CLint” value ([4]; mouse) was 27 μL/min/mg protein and the Ames test [5] was “nongenotoxic”. The “Cerep Safety panel 44 targets (overall result)” value [6] was “clean”, the “Cerep Safety panel inhibition of A2A” value (A2A) was 53% and the CL [7] was 34.8 mL/min/kg.

In the case of `CCOc1ccc(-c2nnc([C@H]3C[C@H](NC(=O)c4ccnc5cccnc45)C3)n2-c2ccccc2F)nc1` [Compound 15a], the “metabolic stability in mouse microsomes” value [4] is listed as “high metabolic instability”.

Work on `CCOc1ccc(-c2nnc([C@H]3C[C@H](NC(=O)c4ccnc5cccnc45)C3)n2-c2ccncc2)nc1` [Compound 18a, N-(trans-3-(5-(5-Ethoxypyridin-2-yl)-4-(pyridin-4-yl)-4H-1,2,4-triazol-3-yl)cyclobutyl)-1,5-naphthyridine-4-carboxamide] yielded an IC50 (TNKS2) of 5.4 nM and an IC50 (WNT/β-catenin signaling [8]; [10]) of 13 nM.

Compound `CCOc1ccc(-c2nnc([C@H]3C[C@H](NC(=O)c4ccnc5cc(F)cnc45)C3)n2-c2ccncc2)nc1` [Compound 18b, N-(trans-3-(5-(5-Ethoxypyridin-2-yl)-4-(pyridin-4-yl)-4H-1,2,4-triazol-3-yl)cyclobutyl)-7-fluoro-1,5-naphthyridine-4-carboxamide] has an IC50 (TNKS2) of 2.9 nM, an IC50 (WNT/β-catenin signaling [8]; [10]) of 6 nM and an IC50 (WNT/β-catenin signaling [8]; [11]) of 6.4 nM. The AUC(0-inf) at 24 h [9] was 322 ng·h/mL, the AUC(0-t) at 24 h [9] was 319 ng·h/mL and the Cmax at 24 h [9] was 285 ng/mL. For the same compound, the Tmax at 24 h [9] was 15 min, the half-life at 24 h [9] was 60 min and the MRT inf at 24 h [9] was 93.6 min. The CL [9] was 260 mL/min/kg, the Vd [9] was 22.4 L/kg and the solubility kinetic (kinetic solubility) was > 80 µM.

Compound `CCOc1ccc(-c2nnc(C34CC(NC(=O)c5ccnc6cccnc56)(C3)C4)n2-c2ccccn2)nc1` [Compound 19, N-(3-(5-(5-Ethoxypyridin-2-yl)-4-(pyridin-2-yl)-4H-1,2,4-triazol-3-yl)bicyclo[1.1.1]pentan-1-yl)-1,5-naphthyridine-4-carboxamide] has an IC50 (TNKS2) of 13 nM and an IC50 (WNT/β-catenin signaling [8]; [12]) of 20 nM.

Compound `CCOc1ccc(-c2nnc(C34CC(NC(=O)c5ccnc6cccnc56)(C3)C4)n2-c2cccnc2)nc1` [Compound 20, N-(3-(5-(5-Ethoxypyridin-2-yl)-4-(pyridin-3-yl)-4H-1,2,4-triazol-3-yl)bicyclo[1.1.1]pentan-1-yl)-1,5-naphthyridine-4-carboxamide] has an IC50 (TNKS2) of 9.6 nM and an IC50 (WNT/β-catenin signaling [8]; [12]) of 30 nM.

For `CCOc1ccc(-c2nnc(C34CC(NC(=O)c5ccnc6cccnc56)(C3)C4)n2-c2ccncc2)nc1` [Compound 21, N-(3-(5-(5-Ethoxypyridin-2-yl)-4-(pyridin-4-yl)-4H-1,2,4-triazol-3-yl)bicyclo[1.1.1]pentan-1-yl)-1,5-naphthyridine-4-carboxamide], the IC50 (TNKS2) was 9.4 nM and the IC50 (WNT/β-catenin signaling [8]; [12]) was 43 nM.

In the case of `CCOc1ccc(-c2nnc([C@H]3C[C@H](NC(=O)c4ccnc5cccnc45)C3)n2-c2ccc(C)s2)nc1` [Compound 22a, N-(trans-3-(5-(5-Ethoxypyridin-2-yl)-4-(5-methylthiophen-2-yl)-4H-1,2,4-triazol-3-yl)cyclobutyl)-1,5-naphthyridine-4-carboxamide], the IC50 (TNKS2) is reported as 0.73 nM, the IC50 (WNT/β-catenin signaling [8]; [10]) is reported as 0.81 nM and the AUC(0-inf) at 24 h [9] is reported as 547 ng·h/mL. For the same compound, the AUC(0-t) at 24 h [9] was 543 ng·h/mL, the Cmax at 24 h [9] was 779 ng/mL and the Tmax at 24 h [9] was 15 min. It also gave a half-life at 24 h [9] of 70.2 min, an MRT inf at 24 h [9] of 83.4 min and a CL [9] of 152 mL/min/kg. For the same compound, the Vd [9] was 15.5 L/kg and the solubility kinetic at 1 h (kinetic solubility) was 50 µM (≈ 25.6 µg/mL).

Work on `CCOc1ccc(-c2nnc([C@H]3C[C@H](NC(=O)c4ccnc5cc(F)cnc45)C3)n2-c2ccc(C)s2)nc1` [Compound 22b, N-(trans-3-(5-(5-Ethoxypyridin-2-yl)-4-(5-methylthiophen-2-yl)-4H-1,2,4-triazol-3-yl)cyclobutyl)-7-fluoro-1,5-naphthyridine-4-carboxamide] yielded an IC50 (TNKS2) of 1.6 nM and an IC50 (WNT/β-catenin signaling [8]; [10]) of 1 nM.

For `CCOc1ccc(-c2nnc([C@H]3C[C@H](NC(=O)c4cccc5cccnc45)C3)n2-c2ccc(C)s2)nc1` [Compound 23, N-(trans-3-(5-(5-Ethoxypyridin-2-yl)-4-(5-methylthiophen-2-yl)-4H-1,2,4-triazol-3-yl)cyclobutyl)quinoline-8-carboxamide], the IC50 (TNKS2) was 2.4 nM and the IC50 (WNT/β-catenin signaling [8]; [10]) was 1 nM.

In the case of `CCOc1ccc(-c2nnc([C@H]3C[C@H](NC(=O)c4cccc5ncc(C)nc45)C3)n2-c2ccccc2F)nc1` [Compound 26, N-(trans-3-(5-(5-Ethoxypyridin-2-yl)-4-(2-fluorophenyl)-4H-1,2,4-triazol-3-yl)cyclobutyl)-3-methylquinoxaline-5-carboxamide], the IC50 (TNKS2) is reported as 1.5 nM and the IC50 (WNT/β-catenin signaling [8]; [10]) is reported as 2.2 nM.

`CCOc1ccc(-c2nnc([C@H]3C[C@H](NC(=O)c4cccc5nc(C)cnc45)C3)n2-c2ccccc2F)nc1` [Compound 27, N-(trans-3-(5-(5-Ethoxypyridin-2-yl)-4-(2-fluorophenyl)-4H-1,2,4-triazol-3-yl)cyclobutyl)-2-methylquinoxaline-5-carboxamide] gave an IC50 (TNKS2) of 1.1 nM and an IC50 (WNT/β-catenin signaling [8]; [10]) of 2.4 nM.

Work on `CCOc1ccc(-c2nnc([C@H]3C[C@H](NC(=O)c4cccc5nc(C)c(C)nc45)C3)n2-c2ccccc2F)nc1` [Compound 28, N-(trans-3-(5-(5-Ethoxypyridin-2-yl)-4-(2-fluorophenyl)-4H-1,2,4-triazol-3-yl)cyclobutyl)-2,3-dimethylquinoxaline-5-carboxamide] yielded an IC50 (TNKS2) of 2.6 nM and an IC50 (WNT/β-catenin signaling [8]; [10]) of 4.3 nM.

In the case of `O=C(N[C@H]1C[C@H](c2nnc(-c3ccc(OC(F)F)cn3)n2-c2ccccc2F)C1)c1cccc2nccnc12` [Compound 29a, N-(trans-3-(5-(5-(Difluoromethoxy)pyridin-2-yl)-4-(2-fluorophenyl)-4H-1,2,4-triazol-3-yl)cyclobutyl)quinoxaline-5-carboxamide], the IC50 (TNKS2) is reported as 1.9 nM and the IC50 (WNT/β-catenin signaling [8]; [10]) is reported as 1.2 nM.

With `O=C(N[C@H]1C[C@H](c2nnc(-c3ccccn3)n2-c2ccccc2F)C1)c1cccc2nccnc12` [Compound 30a, N-(trans-3-(4-(2-Fluorophenyl)-5-(pyridin-2-yl)-4H-1,2,4-triazol-3-yl)cyclobutyl)quinoxaline-5-carboxamide] the IC50 (TNKS2) was 1.6 nM, the IC50 (WNT/β-catenin signaling [8]; [10]) was 0.29 nM and the IC50 (WNT/β-catenin signaling [8]; [11]) was 0.286 nM.

For `Cc1cccc(-c2nnc([C@H]3C[C@H](NC(=O)c4cccc5nccnc45)C3)n2-c2ccccc2F)n1` [Compound 31a, N-(trans-3-(4-(2-Fluorophenyl)-5-(6-methylpyridin-2-yl)-4H-1,2,4-triazol-3-yl)cyclobutyl)quinoxaline-5-carboxamide], the IC50 (TNKS2) was 1.7 nM, the IC50 (WNT/β-catenin signaling [8]; [10]) was 1.5 nM and the AUC(0-inf) at 24 h [9] was 3400 ng·h/mL. The AUC(0-t) at 24 h [9] was 3400 ng·h/mL, the Cmax at 24 h [9] was 2770 ng/mL and the Tmax at 24 h [9] was 15 min. For the same compound, the half-life at 24 h [9] was 45.6 min, the MRT inf at 24 h [9] was 74.4 min and the CL [9] was 24.5 mL/min/kg. For the same compound, the Vd [9] was 1.61 L/kg and the solubility kinetic (kinetic solubility) was > 80 µM.

`Cc1cccc(-c2nnc([C@H]3C[C@H](NC(=O)c4cc(F)cc5nccnc45)C3)n2-c2ccccc2F)n1` [Compound 31b, N-(trans-3-(4-(2-Fluorophenyl)-5-(6-methylpyridin-2-yl)-4H-1,2,4-triazol-3-yl)cyclobutyl)-7-fluoroquinoxaline-5-carboxamide] showed an IC50 (TNKS2) of 1.6 nM, an IC50 (WNT/β-catenin signaling [8]; [10]) of 0.17 nM and an IC50 (WNT/β-catenin signaling [8]; [11]) of 0.169 nM. It also gave an AUC(0-inf) at 24 h [9] of 5320 ng·h/mL, an AUC(0-t) at 24 h [9] of 5310 ng·h/mL and a Cmax at 24 h [9] of 5800 ng/mL. The Tmax at 24 h [9] was 15 min, the half-life at 24 h [9] was 35.4 min and the MRT inf at 24 h [9] was 88.2 min. It also gave a CL [9] of 15.7 mL/min/kg, a Vd [9] of 0.80 L/kg and a solubility kinetic at 1 h (kinetic solubility) of 13 µM (≈ 6.47 µg/mL).
